Data published in article PMC4924682, “Monoamine oxidase A (MAO A) inhibitors decrease glioma progression” (Oncotarget, 2016).

Legend:
[1] = target: T1, Monoamine Oxidase A (MAO A) (Homo sapiens, UniProt P21397); experiment: radioassay of […]-5-HT turnover in U251S and U251R human glioma cells; format: cell-based
T1 construct: gene MAOA
T1 sequence (P21397 1-527): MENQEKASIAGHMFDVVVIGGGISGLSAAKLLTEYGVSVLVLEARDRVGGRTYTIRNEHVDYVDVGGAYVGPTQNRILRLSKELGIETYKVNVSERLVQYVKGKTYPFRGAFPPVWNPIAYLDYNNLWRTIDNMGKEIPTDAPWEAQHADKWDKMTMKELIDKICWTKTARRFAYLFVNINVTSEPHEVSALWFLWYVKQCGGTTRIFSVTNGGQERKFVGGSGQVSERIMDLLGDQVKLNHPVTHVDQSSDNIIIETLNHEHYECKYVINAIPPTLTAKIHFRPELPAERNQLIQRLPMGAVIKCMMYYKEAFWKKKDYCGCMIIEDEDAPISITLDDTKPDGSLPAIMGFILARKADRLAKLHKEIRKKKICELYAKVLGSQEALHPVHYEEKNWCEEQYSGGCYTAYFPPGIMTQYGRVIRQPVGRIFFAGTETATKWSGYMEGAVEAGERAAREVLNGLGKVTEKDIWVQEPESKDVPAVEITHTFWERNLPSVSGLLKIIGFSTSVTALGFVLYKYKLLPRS

[2] = target: T2, Monoamine Oxidase A (MAO A) (Mus musculus, UniProt Q64133); experiment: radioassay of […]-5-HT turnover in GL26 mouse glioma cells; format: cell-based
T2 construct: gene Maoa
T2 sequence (Q64133 1-526): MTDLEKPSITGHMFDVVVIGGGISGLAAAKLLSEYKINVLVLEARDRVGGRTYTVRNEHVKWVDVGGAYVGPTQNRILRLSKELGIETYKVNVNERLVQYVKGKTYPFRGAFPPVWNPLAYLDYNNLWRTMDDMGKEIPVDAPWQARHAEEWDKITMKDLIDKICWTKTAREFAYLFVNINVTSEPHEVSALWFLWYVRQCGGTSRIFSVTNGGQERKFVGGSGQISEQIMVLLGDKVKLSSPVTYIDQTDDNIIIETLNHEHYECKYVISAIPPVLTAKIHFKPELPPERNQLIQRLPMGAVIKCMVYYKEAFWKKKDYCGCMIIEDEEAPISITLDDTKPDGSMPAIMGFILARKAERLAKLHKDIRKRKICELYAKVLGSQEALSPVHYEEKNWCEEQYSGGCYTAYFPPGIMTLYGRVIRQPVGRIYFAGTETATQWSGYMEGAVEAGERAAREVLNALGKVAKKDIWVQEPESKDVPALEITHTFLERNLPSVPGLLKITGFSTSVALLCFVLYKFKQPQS

NCCc1c[nH]c2ccc(O)cc12 [serotonin]
radioassay of 14C-5-HT turnover in U251S and U251R human glioma cells [1]: MAO A catalytic activity was determined in human and mouse glioma cell lines using serotonin as the substrate
radioassay of 14C-5-HT turnover in GL26 mouse glioma cells [2]: MAO A catalytic activity was determined in human and mouse glioma cell lines using serotonin as the substrate
